Measurements taken from BindingDB's records for doi:10.1021/jm990412m (University of Queensland, 2000).
Residues, ends and D or L forms follow the SMILES beside them.

Assay: Binding affinity against Protease

Ki: 0.6 µM
SMILES: CSCC[C@H](NC(=O)[C@H](CCC(=O)O)NC(=O)[C@H](CC(=O)O)NC(C)=O)C(=O)N[C@@H](CCC(=O)O)C(=O)N[C@@H](CCC(=O)O)C(=O)N[C@@H](CS)C(=O)O [AcAsp-Glu-Met-Glu-Glu-Cys] (Ac-DEMEEC-OH)
